Experimental data taken from BindingDB's records for doi:10.1021/cb9000102 (Pfizer, 2009).

Target: Biotin carboxylase (Escherichia coli (strain K12), UniProt P24182)
Assay: ACCase-Coupled Enzyme Assay
Settings: pH 8; 23 °C
Method: To each well of the plate consisting of 50 mM Hepes (pH 8.0), 100 mM KCl, 1 mM TCEP, 5 mM MgCl2, 0.1 mg/mL BSA, 0.005% (vol/vol) Tween 20, 30 nM E. coli BC, 50 nM E. coli CT, 50 nM biotinylated E. coli BCCP, and 0.5 unit/mL E. coli purine nucleoside phosphorylase was added. […] Reaction progress was monitored by the increase in absorbance at 360 nm. […] Inhibition data were fit to the standard IC50 equation.

IC50 [µM] | SMILES
8.2 | Nc1nccc(C(=O)c2ccccc2)n1 [amino pyrimidine, 7]
59.3 | Cc1nc(-c2ccnc(N)n2)cs1 [amino pyrimidine, 6]
2.4 | Cc1nc2nc(N)[nH]c2c(O)c1Cc1ccccc1 [amino imidazo-pyridinone, 8]
0.007 | Cc1ccccc1CN(Cc1ccc2c(c1)OCCO2)C(=O)c1cnc(N)o1 [amino-oxazole, 2d]
1.29 | CCCCN(Cc1ccccc1)C(=O)c1cnc(N)o1 [amino-oxazole, 2b]
